≈ marks a conversion by molar mass, not a printed value.
Key:
[1] = chronic
Aphidius rhopalosiphi [2] = conditions: chronic/long-term; reproduction
Apis mellifera = conditions: acute, mortality
Canidae = conditions: short-term; duration: 28 days; oral; Dog Other; clinical chemistry
Coturnix japonica = conditions: acute; oral; diet; mortality
Daphnia magna = conditions: chronic/long-term; duration: 21 days; reproduction
Lepomis macrochirus = conditions: acute; duration: 96 hours; mortality
Mus musculus = conditions: oral
Oncorhynchus mykiss = conditions: chronic/long-term; duration: 96 days; growth
Rattus norvegicus = conditions: for NOAEL: clinical chemistry
Tagia sp. = conditions: acute; mortality
Aphidius rhopalosiphi [3] = assay: LR50; higher = less toxic; conditions: acute; duration: 48 hours; mortality

In the case of COP(=S)(OC)SCN1C(=O)c2ccccc2C1=O [Phosmet], the NOEC [1] is reported as 0.001 mg/L, the LEL (Aphidius rhopalosiphi [2]) is reported as 1.41 g/ha and the LD50 (Apis mellifera; duration: 48 hours, dermal) is reported as 0.22 µg/piece. It also gave an LD50 (Apis mellifera; oral, unspecified) of 0.37 µg/piece, an NOAEL (Canidae) of 2 mg/kg-day and an LD50 (Colinus virginianus; acute, oral, mortality) of 57 mg/kg. It also gave an NOEC (Colinus virginianus; reproduction developmental) of 7.5 mg/kg-day, an LC50 (Coturnix japonica) of 406 mg/kg-day and an NOEC (Daphnia magna) of 0.00078 mg/L. It also gave an LC50 (Lepomis macrochirus) of 0.0197 mg/L (≈ 0.0621 µM), an LOAEL (Mus musculus; chronic, duration: 2 years, diet, neurology) of 1 mg/kg-day and an NOAEL (Mus musculus; short-term, duration: 28 days, clinical chemistry) of 2 mg/kg-day. It also gave an NOEC (Oncorhynchus mykiss) of 0.0032 mg/L, an NOAEL (Rattus norvegicus; acute) of 4.5 mg/kg-day and an LD50 (Rattus norvegicus; acute, oral, mortality) of 113 mg/kg. The NOAEC (Rattus norvegicus; reproduction developmental) was 1.5 mg/kg-day, the NOAEL (Rattus norvegicus; subchronic, duration: 13 weeks) was 1.5 mg/kg-day and the NOAEL (Rattus norvegicus; subchronic, duration: 90 days, oral) was 2 mg/kg-day. The LC50 (Tagia sp.) was 104 mg/kg and the LR50 (Aphidius rhopalosiphi [3]) was 1.95 g/ha.
